Results from patent publication US20240294541A1, “COMPOUNDS CONSTITUTING C20-MODIFIED SALINOMYCIN DERIVATIVES, A METHOD FOR OBTAINING THE SAME, A COMPOSITION CONTAINING THE SAME AND A USE OF SAID COMPOUNDS” (FILECLO SPOLKA Z OGRANICZONA ODPOWIEDZIALNOSCIA, priority 2021, published 2024).

Columns and labels:
Format in all cases: cell-based
[1] = test system: A2780Cis (cisplatin-resistant human ovarian cancer); experiment: In vitro cytotoxicity, SRB assay, A2780Cis; details: for IC50: Homo sapiens, A2780cis, read-out: IC50 (nM) A2780Cis
[2] = test system: MV-4-11 (human biphenotypic leukaemia); experiment: In vitro cytotoxicity, MTT assay, MV-4-11; details: for IC50: Homo sapiens, MV4-11, read-out: IC50 (nM) MV4-11
[3] = test system: BALB/3T3 (normal mouse fibroblasts); experiment: In vitro cytotoxicity, SRB assay, normal BALB/3T3 fibroblasts; details: Table 5; BALB/3T3 normal mouse fibroblasts; read-out: IC50 (nM) BALB3T3 normal cells

| SMILES | SI A2780Cis [1] | IC50 [1] [nM] | SI MV4-11 [2] | IC50 [2] [nM] | IC50 [3] [nM] |
| --- | --- | --- | --- | --- | --- |
| CC[C@@H](C(=O)[C@@H](C)[C@@H](O)[C@H](C)[C@@H]1O[C@@H]([C@@H](CC)C(=O)O)CC[C@@H]1C)[C@H]1O[C@]2(C=C[C@@H](NC(=O)OCCS(C)(=O)=O)[C@]3(CC[C@@](C)([C@H]4CC[C@](O)(CC)[C@H](C)O4)O3)O2)[C@H](C)C[C@@H]1C [FLC-00483-1•Na] | 21.2 | 250 | 15.7 | 339 | 5310 |
| CC[C@@H](C(=O)[C@@H](C)[C@@H](O)[C@H](C)[C@@H]1O[C@@H]([C@@H](CC)C(=O)O)CC[C@@H]1C)[C@H]1O[C@]2(C=C[C@@H](NC(=O)NCc3cccnc3)[C@]3(CC[C@@](C)([C@H]4CC[C@](O)(CC)[C@H](C)O4)O3)O2)[C@H](C)C[C@@H]1C [FLC-00566-1•Na] | 47.6 | 122 | 22.8 | 255 | 5820 |
| CC[C@@H](C(=O)[C@@H](C)[C@@H](O)[C@H](C)[C@@H]1O[C@@H]([C@@H](CC)C(=O)O)CC[C@@H]1C)[C@H]1O[C@]2(C=C[C@@H](NC(=O)NCCCOC)[C@]3(CC[C@@](C)([C@H]4CC[C@](O)(CC)[C@H](C)O4)O3)O2)[C@H](C)C[C@@H]1C [FLC-00539-1•Na] | 46.1 | 7.06 | 11.9 | 27.3 | 326 |
| CC[C@@H](C(=O)[C@@H](C)[C@@H](O)[C@H](C)[C@@H]1O[C@@H]([C@@H](CC)C(=O)O)CC[C@@H]1C)[C@H]1O[C@]2(C=C[C@@H](NC(=O)N3CCN(C)CC3)[C@]3(CC[C@@](C)([C@H]4CC[C@](O)(CC)[C@H](C)O4)O3)O2)[C@H](C)C[C@@H]1C [FLC-00515-1•Na] | 10.6 | 357 | 9.5 | 400 | 3790 |
| CC[C@@H](C(=O)[C@@H](C)[C@@H](O)[C@H](C)[C@@H]1O[C@@H]([C@@H](CC)C(=O)O)CC[C@@H]1C)[C@H]1O[C@]2(C=C[C@@H](NC(=O)OCc3ccccc3Cl)[C@]3(CC[C@@](C)([C@H]4CC[C@](O)(CC)[C@H](C)O4)O3)O2)[C@H](C)C[C@@H]1C [FLC-00484-1•Na] | 95.4 | 0.25 | 40.7 | 0.59 | 23.9 |
| CC[C@@H](C(=O)[C@@H](C)[C@@H](O)[C@H](C)[C@@H]1O[C@@H]([C@@H](CC)C(=O)O)CC[C@@H]1C)[C@H]1O[C@]2(C=C[C@@H](NC(=O)OCCC(C)(C)O)[C@]3(CC[C@@](C)([C@H]4CC[C@](O)(CC)[C@H](C)O4)O3)O2)[C@H](C)C[C@@H]1C [FLC-00577-1•Na] | 30.0 | 29.1 | 20.4 | 42.8 | 874 |
| CC[C@@H](C(=O)[C@@H](C)[C@@H](O)[C@H](C)[C@@H]1O[C@@H]([C@@H](CC)C(=O)O)CC[C@@H]1C)[C@H]1O[C@]2(C=C[C@@H](NC(=O)C(=O)NCc3ccncc3)[C@]3(CC[C@@](C)([C@H]4CC[C@](O)(CC)[C@H](C)O4)O3)O2)[C@H](C)C[C@@H]1C [FLC-00489-1•Na] | 28.0 | 175 | 14.6 | 338 | 4920 |
| CC[C@@H](C(=O)[C@@H](C)[C@@H](O)[C@H](C)[C@@H]1O[C@@H]([C@@H](CC)C(=O)O)CC[C@@H]1C)[C@H]1O[C@]2(C=C[C@@H](NC(=O)OCCOC(C)(C)C)[C@]3(CC[C@@](C)([C@H]4CC[C@](O)(CC)[C@H](C)O4)O3)O2)[C@H](C)C[C@@H]1C [FLC-00480-1•Na] | 43.6 | 4.25 | 9.7 | 19.1 | 185 |
| CC[C@@H](C(=O)[C@@H](C)[C@@H](O)[C@H](C)[C@@H]1O[C@@H]([C@@H](CC)C(=O)O)CC[C@@H]1C)[C@H]1O[C@]2(C=C[C@@H](NC(=O)OC(C)(C)C#N)[C@]3(CC[C@@](C)([C@H]4CC[C@](O)(CC)[C@H](C)O4)O3)O2)[C@H](C)C[C@@H]1C [FLC-00551-1•Na] | 12.5 | 63.6 | 9.8 | 81 | 792 |
